In patent US20260144890A1, “ANTIBODY DRUG CONJUGATE COMPRISING NMT INHIBITOR CONJUGATED TO AN ANTIBODY” (MyricX Pharma Limited, priority 2024, published 2026):
Where two headings read alike, the source gives them in different places.

Experiments:
[1] = test system: JIMT-1 human breast xenograft; format: in vivo
Source text: The study was terminated on the Study Day 60.

[2] = test system: BT474 breast cancer cells; assay: Orthotopic breast cancer xenograft model (BT474); format: in vivo, mouse
Description: During the study, body weights were measured three times weekly for all animals. Animals were given Diet Gel for the entire duration on the study.

[3] = test system: SU-DHL-10 cell line; assay: Cell cytotoxicity in SU-DHL-10 cell line (CTG, 72 h); format: cell-based; conditions: Homo sapiens, SU-DHL10, 72 h, 72 h treatment
Description: Certain NMT inhibitors were tested in the SU-DHL-10 cell line (human B cell lymphoma). Compounds which show efficacy in this assay are expected to be useful as agents for treating or preventing hyperproliferative disorders such as cancer.
Cells were seeded in 96-well microplates and treated with compounds or cisplatin (as a positive control) at 9 increasing concentrations in technical triplicate. […] On day 1, 90 μL of various cell suspensions with the number of cells ranging from 5000-8000 cells/well were seeded into wells of a 96-well plate (Corning). The number of cells to be seeded was previously determined. • 2. All 96-wells plates with cells were placed in an incubator overnight at 37° C. with 5% CO2. • 3. On day 2, cells were observed under a microscope ensuring the cells treated with vehicle control were in good condition. • 4. A dilution series of the test compounds and cisplatin were prepared at 10× the final concentrations required. 10 μL/well of 10× compound solution was added to the corresponding plates. The final volume was 100 μL/well for all the plates. […]
Luminescence was recorded using an EnVision Multi Label Reader. […]
(LumTest article=luminescence in test article treated well; LumNone treated=luminescence in vehicle treated well; LumMedium control=luminescence in a well containing only medium and no cells; LumNone treated−LumMedium control was set as 100%).

Row | Compound | tumour volume compared to vehicle alone ([1]; 2.5 mg/kg) | ΔTGI (Study Day 28) ([1]; 2.5 mg/kg QW x 2 weeks IV) | tumour volume compared to vehicle alone ([1]; 5 mg/kg) | ΔTGI (Study Day 28) ([1]; 5 mg/kg QW x 2 weeks IV) | tumour size ([2]; 2.0 mg/kg, 2 days dosing then 5 day holiday, stopped at day 13) | body weights of mice ([2]; trastuzumab and ADC 2.5 and 5 mg/kg, NMT inhibitor 1 2 mg/kg) | IC50 [3] | efficacy of treatment ([1]; Group 4, 5 mg/kg)
1 | sacituzumab | no significant difference | 12.11% | significant decrease | 14.44% |  |  |  | 
2 | CNCc1cnc2ccc(-c3ccc(F)c(F)c3OCCc3c(C(O)C(C)(C)C)nn(C)c3C)cn12 (stereo not drawn) [NMT inhibitor 1, 1-(4-(2-(2,3-difluoro-6-(3-((methylamino)methyl)imidazo[1,2-a]pyridin-6-yl)phenoxy)ethyl)-1,5-dimethyl-1H-pyrazol-3-yl)-2,2-dimethylpropan-1-ol] |  |  |  |  | reduced tumour size | decreased significantly |  | 
3 | CNCc1cnc2ccc(-c3ccc(F)c(F)c3OCCc3c(C(O)C(C)(C)C)nn(C)c3C)cn12 (single isomer, unassigned) [compound 13, 1-(4-(2-(2,3-difluoro-6-(3-((methylamino)methyl)imidazo[1,2-a]pyridin-6-yl)phenoxy)ethyl)-1,5-dimethyl-1H-pyrazol-3-yl)-2,2-dimethylpropan-1-ol] |  |  |  |  |  |  | 0.7 nM | 
4 | sacituzumab govitecan | significant decrease | 13.13% | significant decrease | 23.39% |  |  |  | only partially efficacious
